Assay results reported in US20220259593A1, “CONTROL OF MAMMALIAN GENE DOSAGE USING CRISPR” (The Regents of the University of California, priority 2019, published 2022).

Test system: K562 CRISPRi cells
Experiment: Perturb-seq pooled growth measurement (sgRNA counts, growth phenotype γ, relative activity)
Type: cell-based, human
Settings: sequencing read counts; for Perturb-seq pooled growth sgRNA counts, d5: 5 days of growth (day seven after transduction); for Perturb-seq pooled growth sgRNA counts, d10: 10 days of growth (day twelve after transduction); for Perturb-seq pooled growth sgRNA counts, T0: T0 = day two after transduction
How it was run: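 sgRNA abundance was sequenced from genomic DNA of the same transduced population sampled on days two, seven and twelve. Phenotype γ compares normalized day seven and twelve counts with day two. Day-seven values (five days of growth) define relative sgRNA activity.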

Substance | Perturb-seq pooled growth sgRNA counts, d5 | Perturb-seq pooled growth sgRNA counts, d10 | Perturb-seq pooled growth sgRNA counts, T0
HSPA5_+_128003624.23-P1P2_00: sgRNA targeting HSPA5, GAGCCGAGTAGGCGACGGTG, SEQ ID NO: 88 (listed as DNA, chemistry not fully specified) | 1756 | 2176 | 5785
HSPA5_+_128003624.23-P1P2_01: sgRNA targeting HSPA5, GAACCGAGTAGGCGACGGTG, SEQ ID NO: 91 (listed as DNA, chemistry not fully specified) | 3124 | 3812 | 7580
HSPA5_+_128003624.23-P1P2_04: sgRNA targeting HSPA5, GAGCCGAGAAGGCGACGGTG, SEQ ID NO: 89 (listed as DNA, chemistry not fully specified) | 3304 | 4282 | 11091
HSPA5_+_128003624.23-P1P2_06: sgRNA targeting HSPA5, GAGCCGAGTAGACGACGGTG, SEQ ID NO: 92 (listed as DNA, chemistry not fully specified) | 17649 | 23714 | 10180
HSPA5_+_128003624.23-P1P2_08: sgRNA targeting HSPA5, GAGCCGAGTGGGCGACGGTG, SEQ ID NO: 90 (listed as DNA, chemistry not fully specified) | 3005 | 3487 | 10148
HSPA9_−_137911079.23-P1P2_00: sgRNA targeting HSPA9, GGAGCTGCGCGATGCGGTGG, SEQ ID NO: 131 (listed as DNA, chemistry not fully specified) | 944 | 835 | 5450
HSPA9_−_137911079.23-P1P2_02: sgRNA targeting HSPA9, GGAGTTGCGCGATGCGGTGG, SEQ ID NO: 133 (listed as DNA, chemistry not fully specified) | 1727 | 1872 | 4345
HSPA9_−_137911079.23-P1P2_04: sgRNA targeting HSPA9, GGAGCTGCGCAATGCGGTGG, SEQ ID NO: 135 (listed as DNA, chemistry not fully specified) | 9346 | 10829 | 6754
HSPA9_−_137911079.23-P1P2_07: sgRNA targeting HSPA9, GGAGCTGCGGGATGCGGTGG, SEQ ID NO: 132 (listed as DNA, chemistry not fully specified) | 1513 | 1463 | 5941
HSPA9_−_137911079.23-P1P2_08: sgRNA targeting HSPA9, GGAGCTGCTCGATGCGGTGG, SEQ ID NO: 134 (listed as DNA, chemistry not fully specified) | 2803 | 2726 | 3137
HSPE1_+_198365089.23-P1P2_00: sgRNA targeting HSPE1, GGAGACTCGCAGTCCGGCCC, SEQ ID NO: 9 (listed as DNA, chemistry not fully specified) | 2348 | 1179 | 6813
HSPE1_+_198365089.23-P1P2_01: sgRNA targeting HSPE1, GGAGACACGCAGTCCGGCCC, SEQ ID NO: 65 (listed as DNA, chemistry not fully specified) | 4228 | 2663 | 9669
HSPE1_+_198365089.23-P1P2_02: sgRNA targeting HSPE1, GGAGACTGGCAGTCCGGCCC, SEQ ID NO: 67 (listed as DNA, chemistry not fully specified) | 5731 | 4437 | 7969
HSPE1_+_198365089.23-P1P2_03: sgRNA targeting HSPE1, GGTGACTCGCAGTCCGGCCC, SEQ ID NO: 66 (listed as DNA, chemistry not fully specified) | 3034 | 2279 | 7473
HSPE1_+_198365089.23-P1P2_14: sgRNA targeting HSPE1, GGAGACTCGCAGTCCTGCCC, SEQ ID NO: 68 (listed as DNA, chemistry not fully specified) | 6501 | 6498 | 4808
MTOR_+_11322547.23-P1P2_00: sgRNA targeting MTOR, GGGCAGGGGGCCTGAAGCGG, SEQ ID NO: 146 (listed as DNA, chemistry not fully specified) | 6328 | 3144 | 17632
MTOR_+_11322547.23-P1P2_05: sgRNA targeting MTOR, GGGCAGGGGGCTTGAAGCGG, SEQ ID NO: 148 (listed as DNA, chemistry not fully specified) | 4083 | 3324 | 5595
MTOR_+_11322547.23-P1P2_06: sgRNA targeting MTOR, GGGCAGGGGGGCTGAAGCGG, SEQ ID NO: 149 (listed as DNA, chemistry not fully specified) | 3358 | 3174 | 4142
MTOR_+_11322547.23-P1P2_07: sgRNA targeting MTOR, GGGCAGGGGGTCTGAAGCGG, SEQ ID NO: 147 (listed as DNA, chemistry not fully specified) | 3183 | 1899 | 6761
MTOR_+_11322547.23-P1P2_10: sgRNA targeting MTOR, GGGCAGGGGGCCTGAAGCAG, SEQ ID NO: 150 (listed as DNA, chemistry not fully specified) | 7332 | 7827 | 7076
POLR1D_+_28196016.23-P1_00: sgRNA targeting POLR1D, GGGAAGCAAGGACCGACCGA, SEQ ID NO: 11 (listed as DNA, chemistry not fully specified) | 3429 | 1496 | 11671
POLR1D_+_28196016.23-P1_01: sgRNA targeting POLR1D, GGGAAGCCAGGACCGACCGA, SEQ ID NO: 76 (listed as DNA, chemistry not fully specified) | 4460 | 2528 | 12679
